Experimental data from patent US7091222B2, “Imidazole derivatives” (Hoffmann-La Roche Inc., priority 2003, dated 2006).

Target: T1, human mGlu 5a receptor (Homo sapiens, UniProt P41594)
T1 construct: expressed in transfected cells; host or cells: EBNA cells (transient transfection); membrane homogenates
Assay: [3H]MPEP competition binding on membranes of EBNA cells transfected with human mGlu 5a receptor
Conditions: competition with [3H]MPEP (2 nM), 1 h at 4° C., membranes of transiently transfected EBNA cells; Ki=IC50/[1+L/Kd]
Method: For binding experiments, cDNA encoding human mGlu 5a receptor was transiently transfected into EBNA cells using a procedure described by Schlaeger and Christensen [Cytotechnology 15:1–13 (1998)]. Cell membrane homogenates were stored at −80° C. until the day of assay where upon they were thawed and resuspended and polytronised in 15 mM Tris-HCl, 120 mM NaCl, 100 mM KCl, 25 mM CaCl2, 25 mM MgCl2 binding buffer at pH 7.4 to a final assay concentration of 20 μg protein/well.
Saturation isotherms were determined by addition of twelve [^3H]MPEP concentrations (0.04–100 nM) to these membranes (in a total volume of 200 μl) for 1 h at 4° C. Competition experiments were performed with a fixed concentration of [^3H]MPEP (2 nM) and IC50 values of test compounds evaluated using 11 concentrations (0.3–10,000 nM). Incubations were performed for 1 h at 4° C.
At the end of the incubation, membranes were filtered onto unifilter (96-well white microplate with bonded GF/C filter preincubated 1 h in 0.1% PEI in wash buffer, Packard BioScience, Meriden, Conn.) with a Filtermate 96 harvester (Packard BioScience) and washed 3 times with cold 50 mM Tris-HCl, pH 7.4 buffer. Nonspecific binding was measured in the presence of 10 μM MPEP. The radioactivity on the filter was counted (3 min) on a Packard Top-count microplate scintillation counter with quenching correction after addition of 45 μl of microscint 40 (Canberra Packard S. A., Zürich, Switzerland) and shaking for 20 min.
The inhibition (antagonists) curves were fitted with a four parameter logistic equation giving IC50, and Hill coefficient using an iterative non linear curve fitting software (Xcel fit).
For binding experiments the Ki values of the compounds tested are given. the Ki value is defined by the following formula: Ki=IC50/[1+L /Kd] in which the IC50 values are those concentrations of the compounds tested which cause 50% inhibition of the competing radioligand ([^3H]MPEP). L is the concentraion of radioligand used in the binding experiment and the Kd value of the radioligand is empirically determined for each batch of membranes prepared.

T1 sequence (P41594 21-1180 isoform P41594-2 limits assumed): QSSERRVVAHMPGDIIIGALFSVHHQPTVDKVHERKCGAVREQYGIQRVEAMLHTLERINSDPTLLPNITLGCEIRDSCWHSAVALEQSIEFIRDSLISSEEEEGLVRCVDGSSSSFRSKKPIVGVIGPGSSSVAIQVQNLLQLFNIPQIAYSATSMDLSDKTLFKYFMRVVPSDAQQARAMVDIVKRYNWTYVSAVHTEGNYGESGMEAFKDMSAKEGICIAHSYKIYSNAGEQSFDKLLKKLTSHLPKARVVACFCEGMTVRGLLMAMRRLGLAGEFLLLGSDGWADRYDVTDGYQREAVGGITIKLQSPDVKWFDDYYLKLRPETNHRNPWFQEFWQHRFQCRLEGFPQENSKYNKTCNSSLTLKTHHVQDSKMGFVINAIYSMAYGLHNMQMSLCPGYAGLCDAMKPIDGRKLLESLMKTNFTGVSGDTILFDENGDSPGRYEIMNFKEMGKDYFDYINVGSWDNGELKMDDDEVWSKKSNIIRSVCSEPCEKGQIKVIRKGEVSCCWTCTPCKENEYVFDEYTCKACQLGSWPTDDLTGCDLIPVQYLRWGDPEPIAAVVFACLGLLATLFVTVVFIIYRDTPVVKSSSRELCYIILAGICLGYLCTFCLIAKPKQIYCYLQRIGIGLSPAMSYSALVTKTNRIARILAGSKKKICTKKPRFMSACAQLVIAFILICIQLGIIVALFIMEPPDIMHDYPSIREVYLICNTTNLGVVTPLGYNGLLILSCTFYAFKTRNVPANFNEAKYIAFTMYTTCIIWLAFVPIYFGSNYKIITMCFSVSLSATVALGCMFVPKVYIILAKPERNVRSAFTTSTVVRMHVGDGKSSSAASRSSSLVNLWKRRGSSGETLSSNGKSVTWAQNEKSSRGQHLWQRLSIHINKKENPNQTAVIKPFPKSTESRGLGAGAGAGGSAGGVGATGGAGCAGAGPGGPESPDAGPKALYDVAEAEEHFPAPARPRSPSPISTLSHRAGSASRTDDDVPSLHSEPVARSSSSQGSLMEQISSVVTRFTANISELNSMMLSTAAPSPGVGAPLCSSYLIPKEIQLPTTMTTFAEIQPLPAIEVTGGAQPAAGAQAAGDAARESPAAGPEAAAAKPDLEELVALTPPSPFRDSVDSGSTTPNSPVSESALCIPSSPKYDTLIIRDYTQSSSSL

SMILES	Ki
Cc1cc(C#Cc2cn(C(C)C)c(C)n2)ccn1 [Example 2, 4-(1-Isopropyl-2-methyl-1H-imidazol-4-ylethynyl)-2-methyl-pyridine]	68 nM
Cc1cc(C#Cc2cn(CC3CC3)c(C)n2)ccn1 [Example 4, 4-(1-Cyclopropylmethyl-2-methyl-1H-imidazol-4-ylethynyl)-2-methyl-pyridine]	38 nM
Cc1cc(C#Cc2cn(CC#N)c(C)n2)ccn1 [Example 6, [2-Methyl-4-(2-methyl-pyridin-4-ylethynyl)-imidazol-1-yl]-acetonitrile]	33 nM
COCCn1cc(C#Cc2ccnc(C)c2)nc1C [Example 7, 4-[1-(2-Methoxy-ethyl)-2-methyl-1H-imidazol-4-ylethynyl]-2-methyl-pyridine]	122 nM
Cc1nc(C#Cc2ccnc(Cl)c2)cn1CC(C)C [Example 8, 2-Chloro-4-(1-isobutyl-2-methyl-1H-imidazol-4-ylethynyl)-pyridine]	191 nM
Cc1nc(C#Cc2ccnc(Cl)c2)cn1C [Example 12, 2-Chloro-4-(1,2-dimethyl-1H-imidazol-4-ylethynyl)-pyridine]	49 nM
Cc1cc(C#Cc2cn(C)c(C3CC3)n2)ccn1 [Example 13, 4-(2-Cyclopropyl-1-methyl-1H-imidazol-4-ylethynyl)-2-methyl-pyridine]	28 nM
Cc1cc(C#Cc2cn(CC(F)(F)F)c(C)n2)ccn1 [Example 21, 2-Methyl-4-[2-methyl-1-(2,2,2-trifluoro-ethyl)-1H-imidazol-4-ylethynyl]-pyridine]	54 nM
Cc1nc(C#Cc2ccnc(Cl)c2)cn1CC(F)(F)F [Example 22, 2-Chloro-4-[2-methyl-1-(2,2,2-trifluoro-ethyl)-1H-imidazol-4-ylethynyl]-pyridine]	95 nM
